Test results taken from patent US12077503B2, “Substituted cyclic amides and their use as herbicides” (FMC CORPORATION, priority 2015, dated 2024).

What was measured:
[1] = system: ryegrass, Italian (Italian ryegrass, Lolium multiflorum); assay: Test A preemergence; type: in vivo; conditions: Lolium multiflorum, pre-emergence, 240 h, preemergence, 0 to 100 scale where 0 is no effect and 100 is complete control, read-out: Ryegrass, Italian plant response rating; for pest or weed control at 125 g/ha: 125 g ai/ha, approx. 10 d; for pest or weed control at 500 g/ha: 500 g ai/ha
How it was run: (§1)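 Visual injury scores from 0, no effect, to 100, complete control, were assigned versus untreated controls roughly 10 d after treatment in the greenhouse. Test chemicals, formulated with surfactant in a non-phytotoxic solvent, were applied to planted seeds as a preemergence soil spray or postemergence to one- to two-leaf plants 2 to 10 cm tall, in loam–sand soil.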

[2] = system: giant foxtail (Setaria faberii); assay: Test A preemergence; type: in vivo; conditions: Setaria faberi, pre-emergence, 240 h, preemergence, 0 to 100 scale where 0 is no effect and 100 is complete control, read-out: Foxtail, Giant plant response rating; for pest or weed control at 125 g/ha: 125 g ai/ha, approx. 10 d; for pest or weed control at 500 g/ha: 500 g ai/ha
How it was run: as §1

[3] = system: pigweed (Amaranthus retroflexus); assay: Test A preemergence; type: in vivo; conditions: Amaranthus retroflexus, pre-emergence, 240 h, preemergence, 0 to 100 scale where 0 is no effect and 100 is complete control, read-out: Pigweed plant response rating; for pest or weed control at 125 g/ha: 125 g ai/ha, approx. 10 d; for pest or weed control at 500 g/ha: 500 g ai/ha
Kochia (Kochia scoparia) = assay: Test A preemergence; type: in vivo; conditions: Bassia scoparia, pre-emergence, 240 h, preemergence, 0 to 100 scale where 0 is no effect and 100 is complete control, read-out: Kochia plant response rating; for pest or weed control at 125 g/ha: 125 g ai/ha, approx. 10 d; for pest or weed control at 500 g/ha: 500 g ai/ha
How it was run: as §1

[4] = system: ragweed (common ragweed, Ambrosia elatior); assay: Test A preemergence; type: in vivo; conditions: Ambrosia artemisiifolia, pre-emergence, 240 h, preemergence, 0 to 100 scale where 0 is no effect and 100 is complete control, read-out: Ragweed plant response rating; for pest or weed control at 125 g/ha: 125 g ai/ha, approx. 10 d; for pest or weed control at 500 g/ha: 500 g ai/ha
How it was run: as §1

| SMILES | melting point | pest or weed control at 125 g/ha [1] | pest or weed control at 500 g/ha [1] | pest or weed control at 125 g/ha [2] | pest or weed control at 500 g/ha [2] | pest or weed control at 125 g/ha [3] | pest or weed control at 500 g/ha [3] | pest or weed control at 125 g/ha (Kochia (Kochia scoparia)) | pest or weed control at 500 g/ha (Kochia (Kochia scoparia)) | pest or weed control at 125 g/ha [4] | pest or weed control at 500 g/ha [4] |
| --- | --- | --- | --- | --- | --- | --- | --- | --- | --- | --- | --- |
| CCc1cc([C@H]2CN(C)C(=O)[C@@H]2C(=O)Nc2ccccc2F)cs1 [Compound 1156] | 117 to 121 °C | 20% | 30% | 90% | 100% | 0% | 20% | 70% | 80% | 100% | 100% |
| O=C1NCC[C@H](c2cccc(Cl)c2)[C@H]1C(=O)Nc1ccccc1F [Compound 1159] | 141 to 143 °C | 0% | 0% | 70% | 90% | 0% | 0% | 0% | 30% | 0% | 0% |
